The target of one test is T1, p53(Y220C) (Homo sapiens, UniProt P04637, Y220C).
T1 construct: His-p53 Y220C (94-294) protein
Briefly: In vitro DNA binding assay (HTRF), His-p53 Y220C (94-294) with biotinylated p53 consensus DNA. In kind it is biochemical. To be noted: HTRF; 27 °C; His-p53 Y220C (94-294) 2.5 nM; biotinylated DNA 10 nM; normalized to 2 μM Ref-1a; EC50 = concentration at 50% Activation; read-out: p53(Y220C) EC50. The essentials:
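His-p53 Y220C (94-294), 2.5 nM, preincubated with compound and anti-His-Tb cryptate 15 min at 25 °C then 60 min at 27 °C; 10 nM biotinylated consensus DNA with streptavidin-d2 added for 60 min more (HEPES pH 7.4, 75 mM KCl). HTRF 665/620 ratio, normalized to 2 μM Ref-1a high control; EC50 from 4-parameter fit.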

The next test has as its system NUGC-3 (P53 Y220C). Briefly: Cell viability assay (CellTiter-Glo). In kind it is cell-based. To be noted: NUGC-3 cells, 6 days, 37 °C. On the procedure: Cells were collected and counted. A desired number of cells was seeded into 96-well microplate and cultured in 37 °C cell incubator overnight. Compounds dissolved in cell culture medium were added into cell plate and cultured for 6 days. After balancing CellTiter-Glo reagent and cells at room temperature for 30 min, equal volume of CellTiter-Glo reagents was added to assay plate and shaken for 2 min for cell lysis. The cells were balanced at room temperature for 10 minutes and Luminescence signal was read using Envision. The percent of cell viability for compounds treated wells were normalized between High control and low control. Wells containing cell culture medium and same percentage DMSO served as Low control. Wells containing cells and same percentage DMSO served as High control. Cell viability (%)=(Luminescence readoutCompound treated−Luminescence readoutLow control)/(Luminescence readoutHigh control−Luminescence readoutLow control)*100%. Then the data were analyzed either by fitting a 4-parameter logistic model or by Excel to calculate IC50 values. And the IC50 was the concentration at […] Cell viability on the curve.

A further test deals with p53(Y220C)_NUGC-3 (Homo sapiens, UniProt P04637, Y220C). Briefly: Reporter gene assay (NUGC-3_P53_Luc cells). The conditions noted are these: 6 hours, 37 °C, luciferase, normalized to Ref-1a 10 μM, EC50 = concentration at 50% Activity, read-out: p53(Y220C)_NUGC-3 EC50. Type of test: cell-based. On the procedure: NUGC-3_P53_Luc single clonal cell line was established using pGL4.38[luc2P/p53 RE/Hygro] Vector (E365A, promega). NUGC-3_P53_Luc single clonal cells were cultured in 37 °C cell incubator before use. NUGC-3_P53_Luc cells were collected and washed twice with PBS to remove phenol red and then resuspended in medium to a proper concentration. Tested compound dilutions were transferred into 384 well assay plates (PerkinElmer). A desired number of cells was seeded into the assay plate and cultured for 6 hours at 37 °C cell incubator. Britelite plus Luciferase Assay Reagent were added into each well and the luminescence value was recorded on Envision. The percent of activity value of compounds treated wells was normalized between high control and low control. Wells containing cells and Ref-la (10 μM) served as high control, and wells containing cells and same percentage of DMSO served as low control. Activity value (%)=(Luminescence readoutCompound treated−Luminescence readoutLow control)/(Luminescence readoutHigh control−Luminescence readoutLow control)*100%. Then the data were analyzed either by fitting a 4-parameter logistic model or by Excel to calculate EC50 values and the EC50 was the concentration at 50% Activity on the curve.

Turning to `COc1cc([S@](=N)(=O)C2CC2)ccc1NCC#Cc1sc2c(N[C@@H]3CCN(C)C[C@@H]3F)cccc2c1CC(F)(F)F` [Example 53, (R)-cyclopropyl(4-((3-(7-(((3S,4R)-3-fluoro-1-methylpiperidin-4-yl)amino)-3-(2,2,2-trifluoroethyl)benzo[b]thiophen-2-yl)prop-2-yn-1-yl)amino)-3-methoxyphenyl)(imino)-16-sulfanone], the EC50 at p53(Y220C) came to 39 nM; on p53(Y220C)_NUGC-3 it was 128 nM. Besides, the IC50 with NUGC-3 (P53 Y220C) came to 680 nM.

`COc1cc([S@@](=N)(=O)C2CC2)ccc1NCC#Cc1sc2c(N[C@@H]3CCN(C)C[C@@H]3F)cccc2c1CC(F)(F)F` [Example 54, (S)-cyclopropyl(4-((3-(7-(((3S,4R)-3-fluoro-1-methylpiperidin-4-yl)amino)-3-(2,2,2-trifluoroethyl)benzo[b]thiophen-2-yl)prop-2-yn-1-yl)amino)-3-methoxyphenyl)(imino)-16-sulfanone]: the EC50 on p53(Y220C) was determined as 58 nM; on p53(Y220C)_NUGC-3 it was 143 nM. The compound further yielded an IC50 in the test with NUGC-3 (P53 Y220C) of 1050 nM.

For the compound `CN1CC[C@@H](Nc2cccc3c(CC(F)(F)F)c(C#CCNc4ccc(P(C)(C)=O)c5c4C(=O)NC5)sc23)[C@@H](F)C1` [Example 55, 4-(dimethylphosphoryl)-7-((3-(7-(((3S,4R)-3-fluoro-1-methylpiperidin-4-yl)amino)-3-(2,2,2-trifluoroethyl)benzo[b]thiophen-2-yl)prop-2-yn-1-yl)amino)isoindolin-1-one], the EC50 at p53(Y220C) turned out to be 31 nM; at p53(Y220C)_NUGC-3, 196 nM. Further, in the test with NUGC-3 (P53 Y220C) (Homo sapiens, 144 h), inhibition was half-maximal at 1290 nM (IC50).

As to `[2H]C([2H])([2H])Oc1nc(P(C)(C)=O)ccc1NCC#Cc1sc2c(N[C@@H]3CCN(C)C[C@@H]3F)cccc2c1CC(F)(F)F` [Example 56, (5-((3-(7-(((3S,4R)-3-fluoro-1-methylpiperidin-4-yl)amino)-3-(2,2,2-trifluoroethyl)benzo[b]thiophen-2-yl)prop-2-yn-1-yl)amino)-6-(methoxy-d3)pyridin-2-yl)dimethylphosphine oxide], the EC50 at p53(Y220C) came out at 45 nM; on p53(Y220C)_NUGC-3, 61 nM. For the same compound, the IC50 in the test with NUGC-3 (P53 Y220C) (Homo sapiens, 144 h) was determined as 430 nM.

Take `COc1c(NCC#Cc2sc3c(N[C@@H]4CCN(C)C[C@@H]4F)cccc3c2CC(F)(F)F)ccc(P(C)(C)=O)c1OC` [Example 57, (4-((3-(7-(((3S,4R)-3-fluoro-1-methylpiperidin-4-yl)amino)-3-(2,2,2-trifluoroethyl)benzo[b]thiophen-2-yl)prop-2-yn-1-yl)amino)-2,3-dimethoxyphenyl)dimethylphosphine oxide]: the EC50 amounted to 37 nM at p53(Y220C) and 164 nM at p53(Y220C)_NUGC-3. This compound also returned an IC50 with NUGC-3 (P53 Y220C) (Homo sapiens, 144 h) of 790 nM.

On to `COc1cc([S@@](C)(=N)=O)ccc1NCC#Cc1sc2c(N[C@H]3CCN(C)C[C@@H]3F)cccc2c1[C@@H](O)C(F)(F)F` [Example 58, (S)-(4-((3-(7-(((3S,4S)-3-fluoro-1-methylpiperidin-4-yl)amino)-3-((R)-2,2,2-trifluoro-1-hydroxyethyl)benzo[b]thiophen-2-yl)prop-2-yn-1-yl)amino)-3-methoxyphenyl)(imino)(methyl)-16-sulfanone], for which the results for the EC50 at p53(Y220C) and at p53(Y220C)_NUGC-3 were 35 nM and 44 nM, respectively. The compound also showed an IC50 with NUGC-3 (P53 Y220C) (Homo sapiens, 144 h) of 400 nM.

With `COc1cc([S@@](C)(=N)=O)ccc1NCC#Cc1sc2c(N[C@@H]3CCN(C)C[C@H]3F)cccc2c1[C@@H](O)C(F)(F)F` [Example 59, (S)-(4-((3-(7-(((3R,4R)-3-fluoro-1-methylpiperidin-4-yl)amino)-3-((R)-2,2,2-trifluoro-1-hydroxyethyl)benzo[b]thiophen-2-yl)prop-2-yn-1-yl)amino)-3-methoxyphenyl)(imino)(methyl)-16-sulfanone], the EC50 at p53(Y220C) came to 109 nM; at p53(Y220C)_NUGC-3, 266 nM. For the same compound, the IC50 in the test with NUGC-3 (P53 Y220C) (Homo sapiens, 144 h) is 2060 nM.

Regarding `COc1cc([S@@](C)(=N)=O)ccc1NCC#Cc1sc2c(N[C@@H]3CCN(C)C[C@@H]3F)cccc2c1[C@@H](O)C(F)(F)F` [Example 60, (S)-(4-((3-(7-(((3S,4R)-3-fluoro-1-methylpiperidin-4-yl)amino)-3-((R)-2,2,2-trifluoro-1-hydroxyethyl)benzo[b]thiophen-2-yl)prop-2-yn-1-yl)amino)-3-methoxyphenyl)(imino)(methyl)-16-sulfanone], the EC50 on p53(Y220C) is 74 nM; on p53(Y220C)_NUGC-3, 281 nM. This compound showed an IC50 in the test with NUGC-3 (P53 Y220C) of 1800 nM.

Regarding `COc1cc([S@@](C)(=N)=O)ccc1NCC#Cc1sc2c(N[C@H]3CCN(C)C[C@H]3F)cccc2c1[C@@H](O)C(F)(F)F` [Example 61, (S)-(4-((3-(7-(((3R,4S)-3-fluoro-1-methylpiperidin-4-yl)amino)-3-((R)-2,2,2-trifluoro-1-hydroxyethyl)benzo[b]thiophen-2-yl)prop-2-yn-1-yl)amino)-3-methoxyphenyl)(imino)(methyl)-16-sulfanone], the EC50 at p53(Y220C) stood at 36 nM; on p53(Y220C)_NUGC-3 it was 78 nM. In addition, it took 380 nM to reach half-maximal inhibition in the test on NUGC-3 (P53 Y220C) (Homo sapiens, 144 h) (IC50).

The values are drawn from patent publication US20260374794A1, “COMPOUNDS TARGETING MUTANT OF P53” (JACOBIO PHARMACEUTICALS CO., LTD., priority 2022, published 2026).
